In patent US20100298141A1, “SUBSTITUTED PYRIDINE N-OXIDE HERBICIDES” (E. I. DU PONT DE NEMOURS AND COMPANY, priority 2007, published 2010):

Assays:
[1] = system: Russian thistle; test: Test C pre-/postemergence test; format: in vivo, Salsola kali; conditions: for Plant response rating, Russian Thistle: scale 0 to 100 (0 no effect, 100 complete control)
Excerpt: Seeds of plant species selected from blackgrass (Alopecurus myosuroides), downy brome (Bromus tectorum), green foxtail (Setaria viridis), Italian ryegrass (Lolium multiflorum), wheat (Triticum aestivum), wild oat (Avena fatua), catchweed bedstraw (Galium aparine), Russian thistle (Salsola kali), […] (Cynodon dactylon), Surinam grass (Brachiaria decumbens), cocklebur (Xanthium strumarium), corn (Zea mays), crabgrass (Digitaria sanguinalis), woolly cupgrass (Eriochloa villosa), giant foxtail (Setaria faberii), Goosegrass (Eleusin indica), johnsongrass (Sorghum halepense), kochia (Kochia scoparia), lambsquarters (Chenopodium album), morningglory (Ipomoea coccinea), eastern black nightshade (Solanum ptycanthum), yellow nutsedge (Cyperus esculentus), pigweed (Amaranthus retroflexus), common ragweed (Ambrosia elation), soybean (Glycine max), common (oilseed) sunflower (Helianthus annuus), and velvetleaf (Abutilon theophrasti) were planted and treated preemergence with test chemicals formulated in a non-phytotoxic solvent mixture which included a surfactant. At the same time, plants selected from these crop and weed species and also winter barley (Hordeum vulgare), canarygrass (Phalaris minor), and chickweed (Stellaria media) were treated with postemergence applications of some of the test chemicals formulated in the same manner. Plants ranged in height from 2 to 18 cm (1- to 4-leaf stage) for postemergence treatments. […] At time of treatment, test pots were flooded to 3 cm above the soil surface, treated by application of test compounds directly to the paddy water, and then maintained at that water depth for the duration of the test. […] A dash (-) response means no test result.

[2] = system: Italian ryegrass; test: Test F preemergence test; format: in vivo, Lolium multiflorum; conditions: scale 0 to 100; for Ryegrass, Italian plant response rating: preemergence; for Plant response rating, Ryegrass, Italian: Preemergence
Outline: (§1)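 Compounds in a non-phytotoxic solvent formulation with surfactant were applied before emergence after sowing, or, for sugarcane, also postemergence. Evaluation was visual, against controls, after 14 to 21 greenhouse days.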

[3] = system: purple nutsedge; test: Test F preemergence test; format: in vivo, Cyperus rotundus; conditions: scale 0 to 100
Outline: as §1

[4] = system: common groundsel; test: Test F preemergence test; format: in vivo, Senecio vulgaris; conditions: scale 0 to 100
Outline: as §1

[5] = system: large crabgrass; test: Test F preemergence test; format: in vivo, Digitaria sanguinalis; conditions: scale 0 to 100
Outline: as §1

[6] = system: green foxtail; test: Test F preemergence test; format: in vivo, Setaria viridis; conditions: scale 0 to 100
Outline: as §1

[7] = system: common ragweed; test: Test F preemergence test; format: in vivo, Ambrosia elation; conditions: scale 0 to 100; for Ragweed plant response rating: preemergence; for Plant response rating, Ragweed: Preemergence
Outline: as §1

[8] = system: johnsongrass; test: Test F preemergence test; format: in vivo, Sorghum halepense; conditions: scale 0 to 100
Outline: as §1

[9] = system: goosegrass; test: Test F preemergence test; format: in vivo, Eleusine indica; conditions: scale 0 to 100
Outline: as §1

[10] = system: common purslane; test: Test F preemergence test; format: in vivo, Portulaca oleracea; conditions: scale 0 to 100
Outline: as §1

[11] = system: barnyardgrass; test: Test F preemergence test; format: in vivo, Echinochloa crus-galli; conditions: scale 0 to 100
Outline: as §1

[12] = system: naked crabgrass; test: Test F preemergence test; format: in vivo, Digitaria nuda; conditions: scale 0 to 100
Outline: as §1

[13] = system: pitted morningglory; test: Test F preemergence test; format: in vivo, Ipomoea lacunosa; conditions: scale 0 to 100
Outline: as §1

[14] = system: southern sandbur; test: Test F preemergence test; format: in vivo, Cenchrus echinatus; conditions: scale 0 to 100; for Sandbur plant response rating: preemergence; for Plant response rating, Sandbur: Preemergence
Outline: as §1

[15] = system: annual bluegrass; test: Test F preemergence test; format: in vivo, Poa annua; conditions: scale 0 to 100
Outline: as §1

[16] = system: field bindweed; test: Test F preemergence test; format: in vivo, Convolvulus arvensis; conditions: scale 0 to 100
Outline: as §1

[17] = system: itchgrass; test: Test F preemergence test; format: in vivo, Rottboellia cochinchinensis; conditions: scale 0 to 100
Outline: as §1

[18] = 62 g ai/ha, Preemergence, scale 0 to 100
[19] = 125 g ai/ha, preemergence, scale 0 (no effect) to 100 (complete control)
[20] = preemergence, 250 g ai/ha, scale 0 (no effect) to 100 (complete control)

SMILES: Cn1nc(C(F)(F)F)c(C[S+]([O-])c2cc(C(C)(C)C)cc[n+]2[O-])c1OC(F)F (racemic) [Compound 24]
- Russian Thistle plant response rating [1, 18]: 0

SMILES: CC(c1c(C(F)(F)F)nn(CC(F)(F)F)c1Cl)[S+]([O-])c1cccc[n+]1[O-] (stereo not shown) [Compound 46]
- Russian Thistle plant response rating [1, 18]: 0
- Russian Thistle plant response rating [1, 19]: 100
- Russian Thistle plant response rating [1, 20]: 100

SMILES: C#CCOc1c(C[S+]([O-])c2cccc[n+]2[O-])c(C(F)(F)F)nn1C (stereo not shown) [Compound 76]
- Russian Thistle plant response rating [1, 18]: 100
- Russian Thistle plant response rating [1, 19]: 100
- Plant response rating, Russian Thistle ([1]; Preemergence, 31 g ai/ha): 0
- Russian Thistle plant response rating [1, 20]: 100

SMILES: Cc1cc[n+]([O-])c(S(=O)(=O)Cc2c(C(F)(F)F)nn(C)c2OCC(F)F)c1 [Compound 94]
- Russian Thistle plant response rating [1, 18]: 100
- Russian Thistle plant response rating [1, 19]: 100
- Plant response rating, Russian Thistle ([1]; Preemergence, 31 g ai/ha): 100
- Russian Thistle plant response rating [1, 20]: 100

SMILES: Cc1cc[n+]([O-])c(S(=O)(=O)C(C)c2c(C(F)(F)F)nn(C)c2Cl)c1 (racemic) [Compound 14]
- Russian Thistle plant response rating ([1]; 31 g ai/ha, Preemergence, scale 0 to 100): 80
- Russian Thistle plant response rating ([1]; 62 g ai/ha, preemergence, scale 0 (no effect) to 100 (complete control)): 100
- Plant response rating (0 to 100), Russian Thistle ([1]; Preemergence, 250 g ai/ha): 100
- Russian Thistle plant response rating ([1]; preemergence, 125 g ai/ha, scale 0 (no effect) to 100 (complete control)): 100

SMILES: Cc1cc[n+]([O-])c(S(=O)(=O)Cc2c(C(F)(F)C(F)(F)F)nn(C)c2OCC(F)(F)F)c1 [Compound 99]
- Russian Thistle plant response rating [1, 18]: 100
- Russian Thistle plant response rating [1, 19]: 100
- Plant response rating, Russian Thistle ([1]; Preemergence, 31 g ai/ha): 100
- Russian Thistle plant response rating [1, 20]: 100

SMILES: Cn1nc(C(F)(F)C(F)(F)F)c(C[S+]([O-])c2ccc(Cl)c[n+]2[O-])c1OCC(F)(F)F (stereo not shown) [Compound 92]
- Russian Thistle plant response rating [1, 18]: 100
- Russian Thistle plant response rating [1, 19]: 100
- Plant response rating, Russian Thistle ([1]; Preemergence, 31 g ai/ha): 100
- Russian Thistle plant response rating [1, 20]: 100

SMILES: Cn1nc(C(F)(F)F)c(C[S+]([O-])c2ccc(F)c[n+]2[O-])c1Cl (stereo not shown) [Compound 54]
- Russian Thistle plant response rating [1, 18]: 30
- Russian Thistle plant response rating [1, 19]: 100
- Plant response rating, Russian Thistle ([1]; Preemergence, 31 g ai/ha): 0
- Russian Thistle plant response rating [1, 20]: 100

SMILES: Cn1nc(C(F)(F)F)c(C(Cl)S(=O)(=O)c2cccc[n+]2[O-])c1OCC(F)(F)F (racemic) [Compound 36]
- Plant response rating, Russian Thistle ([1]; Preemergence, 31 g ai/ha): 0
- Russian Thistle plant response rating [1, 20]: 60

SMILES: CCc1cc[n+]([O-])c(S(=O)(=O)Cc2c(C(F)(F)F)nn(C)c2OCC(F)(F)F)c1 [Compound 60]
- Ryegrass, Italian plant response rating ([2]; 125 g ai/ha): 90
- Ryegrass, Italian plant response rating ([2]; 250 g ai/ha): 100
- Plant response rating, Ryegrass, Italian ([2]; 62 g ai/ha): 75
- Plant response rating, Ryegrass, Italian ([2]; 31 g ai/ha): 75
- Purple Nutsedge plant response rating ([3]; 62 g ai/ha, Preemergence): 50
- Purple Nutsedge plant response rating ([3]; 125 g ai/ha, preemergence): 80
- Purple Nutsedge plant response rating ([3]; 250 g ai/ha, preemergence): 90
- Plant response rating, Purple Nutsedge ([3]; Preemergence, 31 g ai/ha): 0
- Groundsel plant response rating ([4]; 62 g ai/ha, Preemergence): 60
- Groundsel plant response rating ([4]; 125 g ai/ha, preemergence): 75
- Groundsel plant response rating ([4]; 250 g ai/ha, preemergence): 95
- Plant response rating, Groundsel ([4]; Preemergence, 31 g ai/ha): 0
- Crabgrass, Large plant response rating ([5]; 62 g ai/ha, Preemergence): 98
- Crabgrass, Large plant response rating ([5]; 125 g ai/ha, preemergence): 100
- Crabgrass, Large plant response rating ([5]; 250 g ai/ha, preemergence): 100
- Plant response rating, Crabgrass, Large ([5]; Preemergence, 31 g ai/ha): 0
- Foxtail, Green plant response rating ([6]; 62 g ai/ha, Preemergence): 75
- Foxtail, Green plant response rating ([6]; 125 g ai/ha, preemergence): 100
- Foxtail, Green plant response rating ([6]; 250 g ai/ha, preemergence): 100
- Plant response rating, Foxtail, Green ([6]; Preemergence, 31 g ai/ha): 15
- Ragweed plant response rating ([7]; 125 g ai/ha): 75
- Ragweed plant response rating ([7]; 250 g ai/ha): 100
- Plant response rating, Ragweed ([7]; 62 g ai/ha): 65
- Plant response rating, Ragweed ([7]; 31 g ai/ha): 0
- Johnsongrass plant response rating ([8]; 62 g ai/ha, Preemergence): 50
- Johnsongrass plant response rating ([8]; 125 g ai/ha, preemergence): 95
- Johnsongrass plant response rating ([8]; 250 g ai/ha, preemergence): 100
- Plant response rating, Johnsongrass ([8]; Preemergence, 31 g ai/ha): 0
- Goosegrass plant response rating ([9]; 62 g ai/ha, Preemergence): 80
- Goosegrass plant response rating ([9]; 125 g ai/ha, preemergence): 100
- Goosegrass plant response rating ([9]; 250 g ai/ha, preemergence): 100
- Plant response rating, Goosegrass ([9]; Preemergence, 31 g ai/ha): 80
- Purslane plant response rating ([10]; 62 g ai/ha, Preemergence): 0
- Purslane plant response rating ([10]; 125 g ai/ha, preemergence): 25
- Purslane plant response rating ([10]; 250 g ai/ha, preemergence): 60
- Plant response rating, Purslane ([10]; Preemergence, 31 g ai/ha): 0
- Barnyardgrass plant response rating ([11]; 62 g ai/ha, Preemergence): 100
- Barnyardgrass plant response rating ([11]; 125 g ai/ha, preemergence): 100
- Barnyardgrass plant response rating ([11]; 250 g ai/ha, preemergence): 100
- Plant response rating, Barnyardgrass ([11]; Preemergence, 31 g ai/ha): 65
- Crabgrass, Naked plant response rating ([12]; 62 g ai/ha, Preemergence): 100
- Crabgrass, Naked plant response rating ([12]; 125 g ai/ha, preemergence): 100
- Crabgrass, Naked plant response rating ([12]; 250 g ai/ha, preemergence): 100
- Plant response rating, Crabgrass, Naked ([12]; Preemergence, 31 g ai/ha): 20
- Morningglory plant response rating ([13]; 62 g ai/ha, Preemergence): 0
- Morningglory plant response rating ([13]; 125 g ai/ha, preemergence): 70
- Morningglory plant response rating ([13]; 250 g ai/ha, preemergence): 100
- Plant response rating, Morningglory ([13]; Preemergence, 31 g ai/ha): 0
- Sandbur plant response rating ([14]; 125 g ai/ha): 100
- Sandbur plant response rating ([14]; 250 g ai/ha): 100
- Plant response rating, Sandbur ([14]; 62 g ai/ha): 65
- Plant response rating, Sandbur ([14]; 31 g ai/ha): 20
- Bluegrass plant response rating ([15]; 62 g ai/ha, Preemergence): 50
- Bluegrass plant response rating ([15]; 125 g ai/ha, preemergence): 90
- Bluegrass plant response rating ([15]; 250 g ai/ha, preemergence): 100
- Plant response rating, Bluegrass ([15]; Preemergence, 31 g ai/ha): 35
- Field Bindweed plant response rating ([16]; 62 g ai/ha, Preemergence): 30
- Field Bindweed plant response rating ([16]; 125 g ai/ha, preemergence): 50
- Field Bindweed plant response rating ([16]; 250 g ai/ha, preemergence): 70
- Plant response rating, Field Bindweed ([16]; Preemergence, 31 g ai/ha): 0
- Itchgrass plant response rating ([17]; 62 g ai/ha, Preemergence): 15
- Itchgrass plant response rating ([17]; 125 g ai/ha, preemergence): 25
- Itchgrass plant response rating ([17]; 250 g ai/ha, preemergence): 70
- Plant response rating, Itchgrass ([17]; Preemergence, 31 g ai/ha): 0
